The record followed here is patent US10383867B2, “Quinoline derivatives and their use for treating endoplasmic reticulum stress-related diseases and disorders” (priority 2015, dated 2019).

In assay [1] the test system is HEK293 cells / N2a cells under ER stress. In words: ER stress cell rescue assay (protection against thapsigargin- or hydrogen peroxide-induced cell-death). Format: cell-based, human (HEK293), mouse (N2a). Particulars: cell rescue from induced ER stress; cell line of the EC50 not specified. Here is the method: Protection against Thapsigargin (TG)-induced Cell-death. Human embryonic kidney (HEK293) cells were grown in Dulbecco's Modified Eagle's Medium (DMEM) with 10% FBS and 1% antibiotic antimycotic solution (ABAM). Mouse neuroblastoma (N2a) cells were grown in 1:1 DMIEM:OPTI-MEM® with 5% FBS and 1% ABAM. All cells were grown in 10% CO2 in a humidified environment of the incubator. Cells grown in 96-well plates were exposed to a test compound (20 μM) for 2 hrs before addition of thapsigargin (15 μM for HEK293 cells and 1 μM for N2a cells) to induce ER stress. After incubation in cell-culture incubator for 24 hrs, ALAMARBLUE® regent (10% v/v) was added to the wells. Fluorescence reading was taken 2 hrs after the addition of the ALAMARBLUE® regent. Cell-viability was calculated as a percentage of relative fluorescence unit (RFU) compared to control.
Protection against Hydrogen Peroxide-induced Cell-death. N2a cell grown in 96-well plates were exposed to a test compound (40 μM) for 2 hrs before addition of hydrogen peroxide (200 μM). After 40 min of incubation with hydrogen peroxide, ALAMARBLUE® regent (10% v/v) was added to the wells. Fluorescence reading was taken 2 hrs after the addition of the ALAMARBLUE® regent. Cell-viability was calculated as a percentage of relative fluorescence unit (RFU) compared to control.
The results are summarized in Table 1, where, for ER stress cell rescue ECso values, A represents a value smaller than 20 μM, B represents a value between 20 μM to 100 μM, C represents a value greater than 100 μM.

Assay [2] concerns SERCA. As to the kind of experiment: Activation of SERCA (NADH-linked, enzyme-coupled ATPase assay). Format: biochemical. Particulars: for Increase in Vmax at 10 μM: SERCA ATPase, compound at 10 μM; for EC50: SR vesicles, concentration for 50% activation of the maximum Vmax. Here is the method:
Test compounds were characterized over a range of concentrations using an NADH-linked, enzyme-coupled ATPase assay. Each well contained […] of SR vesicles (optimized for skeletal or cardiac SR, respectively), 50 mM MOPS (pH 7.0), 100 mM KCl, 5 mM MgCl2, 1 mM EGTA, 0.2 mM NADH, 1 mM phosphoenol pyruvate, 5 IU pyruvate kinase, 5 IU lactate dehydrogenase, and […] A23187 (a calcium ionophore), and CaCl2 was added to set free [Ca^2+] to the specific values. The assay was started upon addition of ATP at a final concentration of 5 mM, and read in a SpectraMax Plus microplate spectrophotometer and the ATPase activities were fitted using the Hill function. ECso values were determined as the concentrations of the test compounds that were required for 50% activation of the maximum Vmax.
The biological results are summarized in Table 1, wherein, for SERCA ATPase EC50 values, A represents a value smaller than 20 μM, B represents a value between 20 μM to 100 μM, C represents a value greater than 100 μM; and for increases in Vmax at 10 μM, A′ represents an increase greater than 50%, B′ represents an increase between 20 to 50%, and C′ represents an increase no greater than 20%.

Each structure is given as a SMILES string.

`Cc1ccc2cccc(/C=C/c3ccc(OC(C)C)cc3)c2n1` [A1, (E)-8-(Isopropoxystyryl)-2-methylquinoline]: the EC50 in assay [1] is less than 20 µM.
`Cc1ccc2cccc(-c3nc(-c4ccc(OC(C)C)cc4)no3)c2n1` [B1, 3-(4-Isopropoxyphenyl)-5-(2-methylquinolin-8-yl)-1,2,4-oxadiazole]: in assay [2], the “Increase in Vmax at 10 μM” value is given as “B′ (B′ represents an increase between 20 to 50%)” and the EC50 was less than 20 µM. In assay [1], the EC50 is less than 20 µM.
As for `Cc1ccc2cccc(-c3nc(-c4ccc(Br)s4)no3)c2n1` [B2, 3-(5-Bromothiophen-2-yl)-5-(2-methylquinolin-8-yl)-1,2,4-oxadiazole], in assay [2], the “Increase in Vmax at 10 μM” value is on record as “B′ (B′ represents an increase between 20 to 50%)” and the EC50 was less than 20 µM. Further, the EC50 in assay [1] is less than 20 µM.
For the compound `Cc1ccc2cccc(NCc3ccc(Br)s3)c2n1` [C3, N-((5-Bromothiophen-2-yl)methyl)-2-methylquinolin-8-amine], in assay [2], the “Increase in Vmax at 10 μM” value is “B′ (B′ represents an increase between 20 to 50%)” and the EC50 is less than 20 µM. For the same compound, the EC50 in assay [1] is less than 20 µM.
With `Cc1ccc2cccc(NCc3ccc(OC(C)C)cc3)c2n1` [C1, N-((4-Isopropoxyphenyl)methyl)-2-methylquinolin-8-amine], in assay [2], the “Increase in Vmax at 10 μM” value is listed as “B′ (B′ represents an increase between 20 to 50%)” and the EC50 was less than 20 µM. This compound returned an EC50 in assay [1] of less than 20 µM.
On to `Cc1ccc2cccc(NS(=O)(=O)c3cc(Br)cs3)c2n1` [D2, 4-Bromo-N-(2-methylquinolin-8-yl)thiophene-2-sulfonamide], for which, in assay [2], the “Increase in Vmax at 10 μM” value is “B′ (B′ represents an increase between 20 to 50%)” and the EC50 was less than 20 µM. The same compound registered an EC50 in assay [1] of less than 20 µM.
Take `Cc1ccc2cccc(NS(=O)(=O)c3ccc(OC(C)C)cc3)c2n1` [D1, N-(2-Methylquinolin-8-yl)-5-isopropoxyphenyl-2-sulfonamide]: in assay [2], the “Increase in Vmax at 10 μM” value was “C′ (C′ represents an increase no greater than 20%)” and the EC50 was less than 20 µM. The EC50 in assay [1] was less than 20 µM.
With `Cc1ccc2cccc(NCc3cc(Br)cs3)c2n1` [C2, N-((4-Bromothiophen-2-yl)methyl)-2-methylquinolin-8-amine], in assay [2], the “Increase in Vmax at 10 μM” value is given as “B′ (B′ represents an increase between 20 to 50%)” and the EC50 is less than 20 µM. The compound also displayed an EC50 in assay [1] of less than 20 µM.
Consider `Cc1ccc2cccc(NS(=O)(=O)c3ccc(Br)s3)c2n1` [D3, 5-Bromo-N-(2-methylquinolin-8-yl)thiophene-2-sulfonamide], for which the “Increase in Vmax at 10 μM” value in assay [2] is on record as “B′ (B′ represents an increase between 20 to 50%)”. For the same compound, the EC50 in assay [2] and in assay [1] was less than 20 µM in each case.
